# Data taken from US20230374591A1, “METHODS AND AGENTS FOR TREATING, PREVENTING, DIAGNOSING, AND EVALUATING THERAPY FOR FIBROTIC, AUTOIMMUNE, AND INFLAMMATORY CONDITIONS” (THE TRUSTEES OF DARTMOUTH COLLEGE, priority 2020, published 2023).
# Assays:
# [1] = tested on: ACVR1C; experiment: SCOT trial longitudinal PBC gene expression: ACVR1C; format: in vivo, human; settings: PBCs of SSc patients, baseline to 48/54 months, imputed data
# Source text: (§1) The SCOT trial compared the therapeutic outcomes of myeloablative CD34+selected autologous HSCT and CYC in severe diffuse SSc patients (for study design details of SCOT trial, see Sullivan K. M. et al., N Engl J Med. 2018 Jan. 4; 378(1): 35-47. doi: 10.1056/nejmoa1703327. [PMID: 29298160]). The trial provided gene expression in the peripheral blood cells (PBCs) from 30 SSc patients who completed HSCT treatment, 33 patients who completed CYC treatment, and 28 healthy controls (Franks J. M. et al., Ann Rheum Dis. 2020 Sep. 15; annrheumdis-2020-217033. doi: 10.1136/annrheumdis-2020-217033. Online ahead of print. [PMID: 32933919]). In the current study, Applicant analyzed the longitudinal expression profile of SCOT patients from baseline to 54 months. 20 month and 26 month data were merged (referred to as 20/26 months), and 48 month and 54 month data were merged (referred to as 48/54 months).
# (§2) To reduce the statistical bias of downstream comparisons, Applicant applied seasonal adjustment and linear interpolation to impute those missing time points. The “imputeTS” R package was used. Patients with only baseline gene expression data and no longitudinal samples were not imputed (n=20; 32% of participants; 10 for cyclophosphamide and 10 for transplant).
# [2] = tested on: Interleukin 6 (IL6); experiment: SCOT trial longitudinal PBC gene expression: IL6; format: in vivo, human; settings: PBCs of SSc patients
# Source text: as §1, §2
# [3] = SCOT trial outcomes / event free survival analysis; format: in vivo, human; settings: CYC arm, median split, P=0.04
# Source text: as §1
# Survival analysis was performed using the “survival” R package based on gene level data. Only the baseline gene expression data were considered for these analyses. Patients were divided into two groups using the median expression value of a given gene as cutoff Briefly, high expression group is patients' gene expression greater than or equal to the median value and low expression group is patients' gene expression lower than the median value. […]
# [4] = tested on: TGF beta; settings: cited from earlier work
Molecule,ACVR1C expression over time [1],IL6 expression over time [2],"hazard ratio (HR) for EFS, higher vs lower baseline CLCF1 expression [3]",SSc biomarkers ([4]; SSc patients),clinical symptoms ([4]; SSc patients),trial result ([4]; SSc)
"O=P1(N(CCCl)CCCl)NCCCO1 (stereo not drawn) [CYC, cyclophosphamide]",flat trend,increased,3.15,–,–,–
fresolimumab: anti-TGF beta monoclonal antibody therapy,–,–,–,decreased,improved,promising results
